Laboratory results as given in patent US8809618B2, “Transgenic mouse for screening and for studies of the pharmacodynamics and pharmacokinetics of ligands acting on the oestrogen receptor and its intracellular receptors, and method for the preparation thereof” (T.O.P. (Transgenic Operative Products) S.R.L., priority 2000, dated 2014).
“Also recorded” adds a separate entry of the source.

Assays:
[1] = tested on: oestrogen receptors; test: Xenooestrogen activity: luciferase activity in liver and brain of transgenic mice injected s.c. with DDT; format: in vivo, mouse; settings: s.c. 5000 μg/ml
Description: (§1) To verify the expression of the transgene in the different tissues and its inducibility by oestrogens, 4 independent experiments were carried out on 8 female individuals of each line (4 heterozygotic and 4 homozygotic). For each experiment, two female individuals were ovariectomised. […] The suspension was frozen and thawed three times, and centrifuged for 30 minutes at 13,000 g; the supernatant was collected and equal quantities of protein, measured by the colorimetric method of Bradford, were subjected to enzymatic testing to reveal the activity of the enzyme luciferase. The method for detection of the activity of the reporter was carried out with a kit by the procedure recommended by the producer (Sigma), mixing ca. 20 μg of protein extract with the luciferin substrate in the presence of 0.5 mM ATP and 30 mM DTT and measuring the […] emitted using a luminometer (Lumat BL 9500, Berthold). […] Luciferase enzymatic activity was evaluated and plotted in the graph. […]

[2] = tested on: ER reporter in primary bone marrow cells; test: Luciferase expression in primary bone marrow cells from transgenic mice; format: cell-based, mouse; settings: 16 hours; for luciferase accumulation, ligand alone: E2 0.01-10 nM, ICI and T 100 nM, Prog and Dex 10 nM; for luciferase accumulation in the presence of 1 nM E2: 100 nM ligand plus 1 nM E2
Description: Two millions of bone marrow cells were suspended in phenol red-free RPMI 1640 with 10% stripped serum. […] Bars represent the average.+−.s.e.m. of 5 individual experiments each done in triplicate. *(P<0.01 as compared to the control), **(P<0.005 as compared to the control), ° (P<0.05 as compared to the T-treated); P were calculated with ANOVA followed by Scheffe test. […] As a control, we also tested progesterone and dexamethasone (10 nM).

[3] = tested on: oestrogen receptors; test: Tissue distribution of E2-dependent luciferase induction in ovariectomised female transgenic mice; format: in vivo, mouse; settings: 26 tissues, ovariectomised 2-month old females, s.c., 16 hours
Description: as §1
The pharmacodynamics of any compound acting via intracellular receptors can also be correctly predicted by the transgenic model of the invention. As an illustrative example, […] luciferase activity was measured in 26 different tissues from 2-month old female mice which had been ovariectomised 2 weeks prior to the experiment. […]

[4] = tested on: oestrogen receptor; test: Time course of luciferase activity in bone and liver of transgenic mice after E2; format: in vivo, mouse; settings: s.c. 50 μg/kg, sacrificed after 3, 6 or 16 hours
[5] = tested on: oestrogen receptors; test: Agonistic/antagonistic action of ER ligands: luciferase activity in tissues of line 2 ERE-luciferase transgenic mice; format: in vivo, mouse; settings: line 2 mice; for effect on E2-dependent activation of luciferase expression in vivo: 250 μg/kg one hour before 50 μg/kg E2
Description: To verify the expression of the transgene in the different tissues and its inducibility by oestrogens, 4 independent experiments were carried out on 8 female individuals of each line (4 heterozygotic and 4 homozygotic). For each experiment, two female individuals were ovariectomised. With the aim of reducing the oestrogens present in the bloodstream of the ovariectomised animals below the detection limit, there was a wait of two weeks before the induction experiment was carried out; the individuals were then subjected to subcutaneous (s.c.) injection of mineral oil with or without 50 μg/kg of dissolved 17-β oestradiol; 16 hours after the treatment, the individuals were sacrificed and the following tissues were dissected out of them: uterus, liver, spleen, lung, heart, kidney, hypothalamus and brain. The protein extracts were obtained by disintegration of the tissue with a homogenizer in the presence of a phosphate lysis buffer consisting of 0.1 M KH2PO4, 0.1 M K2HPO4, 1 mM DTT, 4 mM EGTA and 4 mM EDTA at pH 7.8. The suspension was frozen and thawed three times, and centrifuged for 30 minutes at 13,000 g; the supernatant was collected and equal quantities of protein, measured by the colorimetric method of Bradford, were subjected to enzymatic testing to reveal the activity of the enzyme luciferase. The method for detection of the activity of the reporter was carried out with a kit by the procedure recommended by the producer (Sigma), mixing ca. 20 μg of protein extract with the luciferin substrate in the presence of 0.5 mM ATP and 30 mM DTT and measuring the […] emitted using a luminometer (Lumat BL 9500, Berthold). With reference to FIGS. 5 to 7 of the attached drawings, individuals were subcutaneously injected (s.c.) with 50 μg/Kg 17β-estradiol (E2) or with vehicle (vegetable oil) and sacrificed at 24 hours. Luciferase enzymatic activity was evaluated and plotted in the graph. The arbitrary units are obtained considering the luciferase activity in the uterus of control individuals=100.
By subcutaneous injection of the substance in the presence or in the absence of 17-β oestradiol it is in fact possible to compare the distribution and the intensity of expression of the luciferase gene in the various tissues and to compare it with the control or with the injection of 17-β oestradiol alone. The effect of in vivo administration of two known ER antagonists was investigated in line 2 of transgenic mice. […] Luciferase is expressed as fold induction obtained as the ratio between luciferase activity in ligands treated/control mice.

Row | Molecule | luciferase accumulation, ligand alone [2] | effect on E2-dependent activation of luciferase expression in vivo [5] | luciferase accumulation in the presence of 1 nM E2 [2] | further results
1 | Clc1ccc(C(c2ccc(Cl)cc2)C(Cl)(Cl)Cl)cc1 [DDT] | – | – | – | persistence of luciferase induction [1]: 72 h; time of maximal induction of luciferase activity ([1]; sacrificed at 3-72 hours, vs vehicle): 24 h
2 | C[C@]12CC[C@@H]3c4ccc(O)cc4CC[C@H]3[C@@H]1CC[C@@H]2O [E2, 17β-estradiol] | dose-dependent increase | – | – | luciferase enzyme content in tissues compared to controls [3]: induced an increase in the enzyme content compared to controls in oestrogen target organs; time of maximal luciferase accumulation [4]: 6 h
3 | C[C@]12CC[C@@H]3c4ccc(O)cc4C[C@@H](CCCCCCCCC[S+]([O-])CCCC(F)(F)C(F)(F)F)[C@H]3[C@@H]1CC[C@@H]2O (some centres unmarked) [ICI 182,780] | did not sort [sic] any effect | blockade; also recorded: inhibits the E2-dependent activation of luciferase expression | blocked | –
4 | 4-hydroxytamoxifen | significant increase in luciferase levels even though lower than E2 at the same concentration | blockade | higher luciferase accumulation, yet the level reached was still lower than with E2 alone | agonist activity on luciferase expression in vivo ([5]; 250 μg/Kg alone, liver and brain): partial agonist activity; effect on E2-dependent activation of luciferase expression in vivo ([5]; listed as tamoxifen): inhibits the E2-dependent activation of luciferase expression
5 | CC(=O)[C@H]1CC[C@H]2[C@@H]3CCC4=CC(=O)CC[C@]4(C)[C@H]3CC[C@]12C [progesterone] | did not have any effect | – | – | –
